Assay results taken from ChEMBL document CHEMBL3232749, “Exploring the water-binding pocket of the type II dehydroquinase enzyme in the structure-based design of inhibitors” (J Med Chem, 2014).

Legend:
[1] = target: T1, 3-dehydroquinate dehydratase (Helicobacter pylori (strain ATCC 700392 / 26695) (Campylobacterpylori), UniProt Q48255); test: Reversible competitive inhibition of Helicobacter pylori DHQ2 assessed as conversion of 3-dehydroquinic acid to 3-dehydroshikimic acid by Dixon plot analysis
T1 sequence (Q48255 whole entry): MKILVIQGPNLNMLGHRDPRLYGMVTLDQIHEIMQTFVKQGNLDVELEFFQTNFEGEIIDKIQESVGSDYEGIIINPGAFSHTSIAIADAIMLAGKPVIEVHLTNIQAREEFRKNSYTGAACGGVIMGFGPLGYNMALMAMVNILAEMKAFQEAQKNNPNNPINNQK

[2] = Reversible competitive inhibition of Mycobacterium tuberculosis DHQ2 assessed as conversion of 3-dehydroquinic acid to 3-dehydroshikimic acid by Dixon plot analysis

With `O=C(O)[C@]1(O)C=C([C@@H](O)Cc2ccccc2)[C@@H](O)[C@H](O)C1` the Ki [1] was 37 µM and the Ki [2] was 34 µM.

In the case of `O=C(O)[C@]1(O)C=C(CO)[C@@H](O)[C@H](O)C1`, the Ki [1] is reported as 282 µM and the Ki [2] is reported as 11.2 µM.

Compound `O=C(O)[C@]1(O)C=C(CCO)[C@@H](O)[C@H](O)C1` has a Ki [1] of 188 µM and a Ki [2] of 15 µM.

In the case of `O=C(O)[C@]1(O)C=C([C@H](O)Cc2ccccc2)[C@@H](O)[C@H](O)C1`, the Ki [1] is reported as 33 µM and the Ki [2] is reported as 27 µM.

Compound `O=C(O)[C@]1(O)C=C([C@@H](Cl)Cc2ccccc2)[C@@H](O)[C@H](O)C1` has a Ki [1] of 40.5 µM and a Ki [2] of 14.5 µM.

Work on `O=C(O)[C@]1(O)C=C([C@H](Cl)Cc2ccccc2)[C@@H](O)[C@H](O)C1` yielded a Ki [1] of 10.5 µM and a Ki [2] of 0.48 µM.
